Test results: patent publication US20240327381A1, “Compounds and Compositions for Selective Degradation of Engineered Proteins” (Celgene Corporation, priority 2023, published 2024)
Read-outs that look alike come from different tables or passages of the source.

Tests used:
Helios = biological target: T1, Helios (Homo sapiens, UniProt Q9UKS7); test: Helios degradation in Jurkat/Helios/HiBit cells (Nano-Glo luminescence); format: cell-based; settings: 18 hr, read-out: Helios Jurkat Hibit IC50
T1 construct: endogenous in cells; host or cells: Jurkat cells, CRISPR/Cas9 knock-in of HiBit at the IKZF2 locus
Summary of the method: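 Jurkat cells carrying CRISPR-knocked-in C-terminal HiBit-tagged endogenous IKZF2 were treated with compound in DMEM/10% FCS (10,000 cells/well) for 18 h at 37 °C. HiBit signal was read by Nano-Glo luminescence after 30 min at RT. EC50 for degradation came from a four-parameter logistic fit, with Ymax as % protein degraded.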

[1] = biological target: T2, IKZF1 ZNF2_ZNF3 Q1F degron-tagged CD19 CAR (Homo sapiens, UniProt Q13422, Q146F); test: Degradation of Q1F degron-tagged CD19 CAR in Jurkat cells (flow cytometry of CAR levels); format: cell-based; settings: for DC50: Jurkat cells expressing CD19 CAR tagged with IKZF1 ZNF2_ZNF3 Q1F, 18 hours at 37° C., CAR levels normalized to untreated cells, read-out: Q1F Jurkat IC50; for Dmax: read-out: Q1F Jurkat-YMax
T2 construct: ZNF2_ZNF3 Q1F degron (GERPFFCNQCGASFTQKGNLLRHIKLHSGEKPFKCHLCNYACRRRDALTGHLRTHS); fused on or other part: anti-CD19 scFv, CD28 transmembrane domain, 4-1BB costimulatory domain, CD3 zeta signaling domain (the CAR that carries the degron), and Nluc
Summary of the method: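 Jurkat cells were lentivirally transduced with an anti-CD19 scFv/CD28 TM/4-1BB/CD3ζ CAR tagged with an IKZF1 ZNF2_ZNF3 Q1F degron–Nluc, then treated with compound titrations for 18 h at 37 °C. CAR surface levels were stained (20 min, 4 °C), read by flow cytometry and normalised to untreated cells. EC50 came from a four-parameter logistic fit; Ymin is the minimum % CAR remaining.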

[2] = Ymax is the % protein degraded, Jurkat cells expressing Q1F degron-tagged CD19 CAR, 18 hours

T1 sequence (Q9UKS7 whole entry): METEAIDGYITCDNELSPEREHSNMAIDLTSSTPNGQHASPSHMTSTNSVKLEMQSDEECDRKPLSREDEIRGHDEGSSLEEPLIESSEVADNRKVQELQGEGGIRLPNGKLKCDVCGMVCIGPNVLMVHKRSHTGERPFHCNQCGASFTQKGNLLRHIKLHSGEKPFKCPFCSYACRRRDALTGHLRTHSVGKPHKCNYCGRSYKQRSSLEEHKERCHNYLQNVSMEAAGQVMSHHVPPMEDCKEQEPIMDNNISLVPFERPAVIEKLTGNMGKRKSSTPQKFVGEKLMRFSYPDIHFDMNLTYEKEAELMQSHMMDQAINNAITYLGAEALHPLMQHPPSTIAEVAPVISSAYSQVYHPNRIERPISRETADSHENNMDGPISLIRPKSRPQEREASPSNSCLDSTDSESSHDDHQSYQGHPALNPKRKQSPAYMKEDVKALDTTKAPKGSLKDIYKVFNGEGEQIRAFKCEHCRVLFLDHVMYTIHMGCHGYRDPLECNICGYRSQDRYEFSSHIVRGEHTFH
T1 sequence (Q96SW2 whole entry, further chain): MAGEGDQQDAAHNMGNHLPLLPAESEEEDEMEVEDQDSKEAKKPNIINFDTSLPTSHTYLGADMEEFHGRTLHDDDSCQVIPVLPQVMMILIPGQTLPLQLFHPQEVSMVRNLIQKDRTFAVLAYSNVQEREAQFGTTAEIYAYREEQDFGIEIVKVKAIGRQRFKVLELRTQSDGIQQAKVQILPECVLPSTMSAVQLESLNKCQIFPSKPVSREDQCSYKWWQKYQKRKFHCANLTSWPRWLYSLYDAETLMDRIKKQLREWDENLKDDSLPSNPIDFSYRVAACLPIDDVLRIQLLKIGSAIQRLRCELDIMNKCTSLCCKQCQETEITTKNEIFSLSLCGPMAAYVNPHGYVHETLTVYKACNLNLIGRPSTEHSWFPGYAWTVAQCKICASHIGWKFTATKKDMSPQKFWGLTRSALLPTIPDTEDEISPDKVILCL
T1 sequence (Q16531 whole entry partner): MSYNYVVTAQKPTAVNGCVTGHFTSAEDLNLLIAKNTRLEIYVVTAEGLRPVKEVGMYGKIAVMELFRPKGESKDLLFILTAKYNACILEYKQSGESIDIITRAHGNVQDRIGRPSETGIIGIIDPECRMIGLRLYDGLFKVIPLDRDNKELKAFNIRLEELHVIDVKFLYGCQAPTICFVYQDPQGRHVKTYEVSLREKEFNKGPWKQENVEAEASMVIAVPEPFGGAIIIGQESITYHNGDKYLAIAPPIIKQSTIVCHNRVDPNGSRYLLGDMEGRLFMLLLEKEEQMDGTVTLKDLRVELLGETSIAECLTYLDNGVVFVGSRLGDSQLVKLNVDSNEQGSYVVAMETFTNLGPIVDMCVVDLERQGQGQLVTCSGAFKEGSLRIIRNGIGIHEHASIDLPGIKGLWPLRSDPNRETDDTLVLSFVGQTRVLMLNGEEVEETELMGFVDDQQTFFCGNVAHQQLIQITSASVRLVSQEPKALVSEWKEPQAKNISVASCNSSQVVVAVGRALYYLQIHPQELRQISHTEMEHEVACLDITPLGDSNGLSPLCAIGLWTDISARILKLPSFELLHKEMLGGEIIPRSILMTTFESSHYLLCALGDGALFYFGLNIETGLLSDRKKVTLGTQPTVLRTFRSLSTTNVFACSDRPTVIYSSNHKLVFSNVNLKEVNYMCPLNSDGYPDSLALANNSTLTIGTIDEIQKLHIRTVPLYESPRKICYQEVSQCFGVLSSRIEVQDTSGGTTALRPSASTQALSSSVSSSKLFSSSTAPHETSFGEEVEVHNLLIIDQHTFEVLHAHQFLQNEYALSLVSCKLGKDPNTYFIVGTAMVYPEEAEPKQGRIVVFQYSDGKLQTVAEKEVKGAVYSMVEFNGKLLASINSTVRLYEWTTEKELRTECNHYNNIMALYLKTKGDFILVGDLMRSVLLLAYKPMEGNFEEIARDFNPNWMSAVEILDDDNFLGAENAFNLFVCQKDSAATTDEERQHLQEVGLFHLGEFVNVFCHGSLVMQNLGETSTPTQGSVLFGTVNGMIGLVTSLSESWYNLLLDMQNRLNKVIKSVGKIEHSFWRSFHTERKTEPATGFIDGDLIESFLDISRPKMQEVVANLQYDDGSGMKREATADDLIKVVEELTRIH
T2 sequence (Q13422 whole entry Q146F, the tested form may be a part): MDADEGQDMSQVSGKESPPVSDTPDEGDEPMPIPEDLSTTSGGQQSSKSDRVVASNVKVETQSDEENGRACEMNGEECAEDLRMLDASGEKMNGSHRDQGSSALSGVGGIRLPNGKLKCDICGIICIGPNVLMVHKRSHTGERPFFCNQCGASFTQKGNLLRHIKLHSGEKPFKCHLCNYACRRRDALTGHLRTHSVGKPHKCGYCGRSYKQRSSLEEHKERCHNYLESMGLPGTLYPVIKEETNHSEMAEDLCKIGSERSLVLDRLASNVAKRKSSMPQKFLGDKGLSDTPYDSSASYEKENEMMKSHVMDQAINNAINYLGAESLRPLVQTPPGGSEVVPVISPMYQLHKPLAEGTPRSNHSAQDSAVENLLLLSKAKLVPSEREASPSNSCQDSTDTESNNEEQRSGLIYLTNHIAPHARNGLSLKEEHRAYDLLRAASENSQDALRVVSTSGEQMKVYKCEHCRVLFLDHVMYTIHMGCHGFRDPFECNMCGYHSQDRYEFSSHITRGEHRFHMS

Structure (SMILES) | DC50 (Helios) [µM] | DC50 [1] [µM] | Dmax [1, 2] [%] | Dmax ([1]; Jurkat, 18 h) [%]
Cn1nccc1CN1CCC(c2c(F)cc3c(c2F)CN(C2CCC(=O)NC2=O)C3=O)CC1 (stereo not drawn) [Compound 102, 3-(4,6-difluoro-5-(1-((1-methyl-1H-pyrazol-5-yl)methyl)piperidin-4-yl)-1-oxoisoindolin-2-yl)piperidine-2,6-dione] | ≥ 10 | 0.000283 | 84.3 | –
O=C1CCC(N2Cc3c(cc(F)c(C4(O)CCN(Cc5cccc(-n6cccn6)c5)CC4)c3F)C2=O)C(=O)N1 (stereo not drawn) [Compound 15, 3-(5-(1-(3-(1H-pyrazol-1-yl)benzyl)-4-hydroxypiperidin-4-yl)-4,6-difluoro-1-oxoisoindolin-2-yl)piperidine-2,6-dione] | ≥ 10 | 0.00494 | 79.9 | –
O=C1CCC(N2Cc3c(cc(F)c(C4CCN(Cc5ncccc5Br)CC4)c3F)C2=O)C(=O)N1 (stereo not drawn) [Compound 50, 3-(5-(1-((3-bromopyridin-2-yl)methyl)piperidin-4-yl)-4,6-difluoro-1-oxoisoindolin-2-yl)piperidine-2,6-dione] | ≥ 10 | 0.00136 | 88.4 | –
COc1cccc(CN2CCC(O)(c3c(F)cc4c(c3F)CN(C3CCC(=O)NC3=O)C4=O)CC2)n1 (stereo not drawn) [Compound 38, 3-(4,6-difluoro-5-(4-hydroxy-1-((6-methoxypyridin-2-yl)methyl)piperidin-4-yl)-1-oxoisoindolin-2-yl)piperidine-2,6-dione] | ≥ 10 | 0.0245 | 70.7 | –
O=C1CCC(N2Cc3c(cc(F)c(C4C[C@H]5CC[C@@H](C4)N5Cc4ccc(C(F)F)cc4)c3F)C2=O)C(=O)N1 (stereo partly drawn) [Compound 128, 3-(5-((1R,5S)-8-(4-(difluoromethyl)benzyl)-8-azabicyclo[3.2.1]octan-3-yl)-4,6-difluoro-1-oxoisoindolin-2-yl)piperidine-2,6-dione] | ≥ 10 | 0.0174 | 87.2 | –
O=C1CCC(N2Cc3c(cc(F)c(C4CCN(Cc5cnc6ccccc6n5)CC4)c3F)C2=O)C(=O)N1 (stereo not drawn) [Compound 116, 3-(4,6-difluoro-1-oxo-5-(1-(quinoxalin-2-ylmethyl)piperidin-4-yl)isoindolin-2-yl)piperidine-2,6-dione] | ≥ 10 | 0.00319 | 85.5 | –
O=C1CCC(N2Cc3c(cc(F)c(C4(O)CCN(Cc5cccc(C(F)(F)F)c5)CC4)c3F)C2=O)C(=O)N1 (stereo not drawn) [Compound 26, 3-(4,6-difluoro-5-(4-hydroxy-1-(3-(trifluoromethyl)benzyl)piperidin-4-yl)-1-oxoisoindolin-2-yl)piperidine-2,6-dione] | ≥ 10 | 0.00642 | 78.2 | –
O=C1CCC(N2Cc3c(cc(F)c(C4CCN(CC5CCCC5)CC4)c3F)C2=O)C(=O)N1 (stereo not drawn) [Compound 112, 3-(5-(1-(cyclopentylmethyl)piperidin-4-yl)-4,6-difluoro-1-oxoisoindolin-2-yl)piperidine-2,6-dione] | ≥ 10 | 0.00323 | 84.6 | –
O=C1CCC(N2Cc3c(cc(F)c(C4CCN(Cc5cc(F)ccc5-n5cccn5)CC4)c3F)C2=O)C(=O)N1 (stereo not drawn) [Compound 47, 3-(4,6-difluoro-5-(1-(5-fluoro-2-(1H-pyrazol-1-yl)benzyl)piperidin-4-yl)-1-oxoisoindolin-2-yl)piperidine-2,6-dione] | ≥ 10 | 0.0025 | 88.8 | –
CNc1ccc2c(n1)CN(C(=O)c1c(F)cc3c(c1F)CN(C1CCC(=O)NC1=O)C3=O)C2 (stereo not drawn) [Compound 73, 3-[4,6-difluoro-5-[2-(methylamino)-5,7-dihydropyrrolo[3,4-b]pyridine-6-carbonyl]-1-oxo-isoindolin-2-yl]piperidine-2,6-dione] | ≥ 10 | 0.00311 | – | 95.3
O=C1CCC(N2Cc3c(cc(F)c(C4CCN(Cc5nc6ccccc6s5)CC4)c3F)C2=O)C(=O)N1 (stereo not drawn) [Compound 58, 3-(5-(1-(benzo[d]thiazol-2-ylmethyl)piperidin-4-yl)-4,6-difluoro-1-oxoisoindolin-2-yl)piperidine-2,6-dione] | ≥ 10 | 0.0107 | 86.3 | –
O=C1CCC(N2Cc3c(cc(F)c(CNC(=O)c4cc5ccccn5c4)c3F)C2=O)C(=O)N1 (stereo not drawn) [Compound 69, N-[[2-(2,6-dioxo-3-piperidyl)-4,6-difluoro-1-oxo-isoindolin-5-yl]methyl]indolizine-2-carboxamide] | ≥ 10 | 0.0352 | 53.9 | –
C[C@@H](CO)CN1CCC(c2c(F)cc3c(c2F)CN(C2CCC(=O)NC2=O)C3=O)CC1 (mixture of isomers) [Compound 119, rac-3-(4,6-difluoro-5-(1-((R)-3-hydroxy-2-methylpropyl)piperidin-4-yl)-1-oxoisoindolin-2-yl)piperidine-2,6-dione] | ≥ 10 | 0.00865 | 80.7 | –
COc1cccc(CN2CCC(O)(c3c(F)cc4c(c3F)CN(C3CCC(=O)NC3=O)C4=O)CC2)c1 (stereo not drawn) [Compound 36, 3-(4,6-difluoro-5-(4-hydroxy-1-(3-methoxybenzyl)piperidin-4-yl)-1-oxoisoindolin-2-yl)piperidine-2,6-dione] | ≥ 10 | 0.00377 | 77.7 | –
O=C1CC[C@@H](N2Cc3c(cc(F)c(C4CC5CCC(C4)N5Cc4ccc5ncsc5c4)c3F)C2=O)C(=O)N1 (stereo partly drawn) [Compound 127, (3R)-3-(5-(8-(benzo[d]thiazol-6-ylmethyl)-8-azabicyclo[3.2.1]octan-3-yl)-4,6-difluoro-1-oxoisoindolin-2-yl)piperidine-2,6-dione] | ≥ 10 | 0.00594 | 91.2 | –
O=C1CCC(N2Cc3c(cc(F)c(C4CCN(Cc5nc(C(F)(F)F)cs5)CC4)c3F)C2=O)C(=O)N1 (stereo not drawn) [Compound 105, 3-(4,6-difluoro-1-oxo-5-(1-((4-(trifluoromethyl)thiazol-2-yl)methyl)piperidin-4-yl)isoindolin-2-yl)piperidine-2,6-dione] | ≥ 10 | 0.0835 | 75.3 | –
Cn1cncc1CN1CCC(c2c(F)cc3c(c2F)CN(C2CCC(=O)NC2=O)C3=O)CC1 (stereo not drawn) [Compound 1, 3-(4,6-difluoro-5-(1-((1-methyl-1H-imidazol-5-yl)methyl)piperidin-4-yl)-1-oxoisoindolin-2-yl)piperidine-2,6-dione] | ≥ 10 | 0.0104 | 85.3 | –
O=C1CCC(N2Cc3c(cc(F)c(C4CCN(Cc5nnc(-c6ccccc6)o5)CC4)c3F)C2=O)C(=O)N1 (stereo not drawn) [Compound 120, 3-(4,6-difluoro-1-oxo-5-(1-((5-phenyl-1,3,4-oxadiazol-2-yl)methyl)piperidin-4-yl)isoindolin-2-yl)piperidine-2,6-dione] | ≥ 10 | 0.165 | 65.8 | –
CNC(=O)CN1CCC(c2c(F)cc3c(c2F)CN(C2CCC(=O)NC2=O)C3=O)CC1 (stereo not drawn) [Compound 122, 2-(4-(2-(2,6-dioxopiperidin-3-yl)-4,6-difluoro-1-oxoisoindolin-5-yl)piperidin-1-yl)-N-methylacetamide] | ≥ 10 | 0.0651 | 74.2 | –
O=C1CCC(N2Cc3c(cc(F)c(C4CCN(Cc5nc(-c6ccccc6)no5)CC4)c3F)C2=O)C(=O)N1 (stereo not drawn) [Compound 99, 3-(4,6-difluoro-1-oxo-5-(1-((3-phenyl-1,2,4-oxadiazol-5-yl)methyl)piperidin-4-yl)isoindolin-2-yl)piperidine-2,6-dione] | ≥ 10 | 0.369 | 58.6 | –
Cc1ccc(CCN2CCC(c3c(F)cc4c(c3F)CN(C3CCC(=O)NC3=O)C4=O)CC2)cc1 (stereo not drawn) [Compound 111, 3-(4,6-difluoro-5-(1-(4-methylphenethyl)piperidin-4-yl)-1-oxoisoindolin-2-yl)piperidine-2,6-dione] | ≥ 10 | 0.00745 | 82.7 | –
COCCOCCN1CCC(c2c(F)cc3c(c2F)CN(C2CCC(=O)NC2=O)C3=O)CC1 (stereo not drawn) [Compound 100, 3-(4,6-difluoro-5-(1-(2-(2-methoxyethoxy)ethyl)piperidin-4-yl)-1-oxoisoindolin-2-yl)piperidine-2,6-dione] | ≥ 10 | 0.0226 | 75.5 | –
O=C1CCC(N2Cc3c(cc(F)c(C4(O)CCN(Cc5ccc(C(F)(F)F)cc5Br)CC4)c3F)C2=O)C(=O)N1 (stereo not drawn) [Compound 31, 3-(5-(1-(2-bromo-4-(trifluoromethyl)benzyl)-4-hydroxypiperidin-4-yl)-4,6-difluoro-1-oxoisoindolin-2-yl)piperidine-2,6-dione] | ≥ 10 | 0.014 | 82.8 | –
Cc1cc(Br)cnc1CN1CCC(O)(c2c(F)cc3c(c2F)CN(C2CCC(=O)NC2=O)C3=O)CC1 (stereo not drawn) [Compound 13, 3-(5-(1-((5-bromo-3-methylpyridin-2-yl)methyl)-4-hydroxypiperidin-4-yl)-4,6-difluoro-1-oxoisoindolin-2-yl)piperidine-2,6-dione] | ≥ 10 | 0.086 | 62.4 | –
